A short description of the data set: recombinant barcode read abundance after kanamycin selection (control-corrected) (log10(CPM+1)); higher = more efficient recombination; sequences stand for … in AGTGCAGAGAAAATCGGCCAGTTTTCTCTGCCTGCAGTCCGCATGCCGT…AGATTTATGCAGCGGACTGCCTTTCTCCCAAAGTGATAAACCGGACAGTATCATGGACCGGTTTTCCCGGTAATCCGTATTTGCAAGGTTGGTTTCACT; site = the 11-nt target. The protocol:
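Pooled E. coli target-specificity screen for the IS621 bridge recombinase. Each library plasmid pairs an 11-nt target (CT core) with a bridge RNA whose target-binding loop (9-nt LTG + 4-nt RTG) is reprogrammed; the rest of the 177-nt WT IS621 bridge RNA scaffold is fixed. The plasmid is co-electroporated with a WT donor plasmid; recombinase is induced with 0.1 mM IPTG and recombinants are selected on kanamycin. Recombinant barcodes are sequenced, converted to CPM, averaged over two biological replicates and corrected by the unselected control CPM. Molecule = full bridge RNA written as DNA: LTG = specificity nt 1-9, RTG = reverse complement of specificity nt 8-11, in the WT scaffold.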
On to “ACATGAACTTGGGTTCTAACCTGTTGCCT (site ACCTGAACTAG)”, for which the “recombinant barcode read abundance (log10)” value was determined as 0.0918.
For the sequence “ACATGAACTTGGGTTCTAACCTGTTGCCT (site ACGTGAACTAG)”, the “recombinant barcode read abundance (log10)” value was 0.0989.
Next, “ACATGAACTTGGGTTCTAACCTGTTGCCT (site ACTTGAACTAG)”: 0.101; “ACATGCACTTGGGTTCTAACCTGTTGCAT (site ACATGAACTAT)”: 0.0673.
“ACATGCACTTGGGTTCTAACCTGTTGCAT (site ACATGCACTAT)”: the “recombinant barcode read abundance (log10)” value was found to be 1.05.
Regarding “ACATGCACTTGGGTTCTAACCTGTTGCAT (site ACATGGACTAT)”, the “recombinant barcode read abundance (log10)” value is 0.0168.
Next, “ACATGCACTTGGGTTCTAACCTGTTGCAT (site ACATGTACTAT)”: 0.116.
Next, “ACATGTCCTTGGGTTCTAACCTGTTGCAT (site ACATGTCCTAA)”: 0.374; “ACATGTCCTTGGGTTCTAACCTGTTGCAT (site ACATGTCCTAC)”: 1.24; “ACATGTCCTTGGGTTCTAACCTGTTGCAT (site ACATGTCCTAG)”: 0.137.
Next, “ACATGTCCTTGGGTTCTAACCTGTTGCAT (site ACATGTCCTAT)”: 1.99.
As for “ACATTGTCTTGGGTTCTAACCTGTTGCCT (site ACATTGTCTAG)”, the “recombinant barcode read abundance (log10)” value turned out to be 1.73.
Next, “ACATTGTCTTGGGTTCTAACCTGTTGCCT (site ACCTTGTCTAG)”: 0.0705; “ACATTGTCTTGGGTTCTAACCTGTTGCCT (site ACGTTGTCTAG)”: 0.0669.
Next, “ACATTGTCTTGGGTTCTAACCTGTTGCCT (site ACTTTGTCTAG)”: 0.284; “ACATTTACTTGGGTTCTAACCTGTTGCCT (site ACATTTACTAG)”: 0.0855.
In the case of “ACATTTACTTGGGTTCTAACCTGTTGCCT (site TCATATACTAG)”, the “recombinant barcode read abundance (log10)” value was determined as 0.242.
With “ACATTTCCTTGGGTTCTAACCTGTTGCAT (site ACATTTCCTAT)”, the “recombinant barcode read abundance (log10)” value stood at 0.8.
With “ACATTTCCTTGGGTTCTAACCTGTTGCAT (site TAGAACTCTGC)”, the “recombinant barcode read abundance (log10)” value came to 0.105.
Turning to “ACCAAAGCTTGGGTTCTAACCTGTTGCCA (site ACCAAAGCTTG)”, the “recombinant barcode read abundance (log10)” value was 0.115.
Next, “ACCAAAGCTTGGGTTCTAACCTGTTGCCA (site ACCACAGCTAG)”: 0.137; “ACCAAATCTTGGGTTCTAACCTGTTGCCG (site ACCAAATCTCG)”: 0.0782.
Take “ACCAAATCTTGGGTTCTAACCTGTTGCCG (site ACCAAATCTTA)”: the “recombinant barcode read abundance (log10)” value turned out to be 0.0479.
With “ACCAAGACTTGGGTTCTAACCTGTTGCCG (site ACCAAGACTCG)”, the “recombinant barcode read abundance (log10)” value turned out to be 0.373.
Next, “ACCAAGACTTGGGTTCTAACCTGTTGCCG (site TCCAAGACTCT)”: 0.00901.
Next, “ACCAAGCCTTGGGTTCTAACCTGTTGCGG (site ACCAAGCCTCC)”: 1.36.
“ACCAAGCCTTGGGTTCTAACCTGTTGCGG (site GCCCAGCCTCC)”: the “recombinant barcode read abundance (log10)” value stood at 0.295.
Next, “ACCAATCCTTGGGTTCTAACCTGTTGCCT (site ACCAATACTAG)”: 0.087; “ACCAATCCTTGGGTTCTAACCTGTTGCCT (site ACCAATCCTAG)”: 0.21.
Next, “ACCAATCCTTGGGTTCTAACCTGTTGCCT (site ACCAATGCTAG)”: 0.177.
Next, “ACCAATCCTTGGGTTCTAACCTGTTGCCT (site ACCAATTCTAG)”: 0.0626; “ACCAGGTCTTGGGTTCTAACCTGTTGCCT (site AACAGGTCTAG)”: 0.15; “ACCAGGTCTTGGGTTCTAACCTGTTGCCT (site ACCAGGTCTAG)”: 1.59.
On to “ACCAGGTCTTGGGTTCTAACCTGTTGCCT (site AGCAGGTCTAG)”, for which the “recombinant barcode read abundance (log10)” value came to 0.208.
Next, “ACCAGGTCTTGGGTTCTAACCTGTTGCCT (site ATCAGGTCTAG)”: 0.09; “ACCAGTCCTTGGGTTCTAACCTGTTGCTG (site ACCAGTCCTCA)”: 1.97; “ACCAGTCCTTGGGTTCTAACCTGTTGCTG (site ACCAGTCCTTA)”: 0.0735.
Consider “ACCCAAACTTGGGTTCTAACCTGTTGCCT (site ACCCAAACTAG)”, for which the “recombinant barcode read abundance (log10)” value turned out to be 1.08.
Next, “ACCCAAACTTGGGTTCTAACCTGTTGCCT (site ACCCAACCTAG)”: 0.0677; “ACCCAAACTTGGGTTCTAACCTGTTGCCT (site ACCCAAGCTAG)”: 0.161.
Next, “ACCCAAACTTGGGTTCTAACCTGTTGCCT (site ACCCAATCTAG)”: 0.0553; “ACCCGCTCTTGGGTTCTAACCTGTTGCCT (site ACCCGCTCTAG)”: 0.542; “ACCCGCTCTTGGGTTCTAACCTGTTGCCT (site TAGGATCCTTC)”: 0.538.
In the case of “ACCCTAACTTGGGTTCTAACCTGTTGCGG (site ACCCTAACTCC)”, the “recombinant barcode read abundance (log10)” value is 1.16.
On to “ACCCTAACTTGGGTTCTAACCTGTTGCGG (site ACCTTAGCTCC)”, for which the “recombinant barcode read abundance (log10)” value worked out at 0.
Next, “ACCCTATCTTGGGTTCTAACCTGTTGCCT (site ACCCTAACTCG)”: 0.0342; “ACCCTATCTTGGGTTCTAACCTGTTGCCT (site ACCCTATCTAG)”: 1.39.
Next, “ACCCTCCCTTGGGTTCTAACCTGTTGCTA (site ACCCTCCCTTA)”: 2.47; “ACCCTCCCTTGGGTTCTAACCTGTTGCTA (site ACTCTACCTTA)”: 0.136.
Next, “ACCGGTCCTTGGGTTCTAACCTGTTGCGT (site ACCGGTCCTAC)”: 2.14; “ACCGGTCCTTGGGTTCTAACCTGTTGCGT (site ATCGTTCCTAC)”: 0.0193; “ACCGTACCTTGGGTTCTAACCTGTTGCCT (site ACCGTACCTAG)”: 0.304.
As for “ACCGTACCTTGGGTTCTAACCTGTTGCCT (site ACCGTAGCTAG)”, the “recombinant barcode read abundance (log10)” value amounted to 0.0594.
Next, “ACCGTTCCTTGGGTTCTAACCTGTTGCCT (site ACCGTTCCTAG)”: 0.78.
Next, “ACCGTTCCTTGGGTTCTAACCTGTTGCCT (site CTTTAAGCTTA)”: 0.0328; “ACCTAACCTTGGGTTCTAACCTGTTGCAT (site ACCTAACCTAT)”: 1.67; “ACCTAACCTTGGGTTCTAACCTGTTGCAT (site ATCTATCCTAT)”: 0.214.
As to “ACCTACCCTTGGGTTCTAACCTGTTGCGG (site ACCTACCCTCC)”, the “recombinant barcode read abundance (log10)” value came out at 2.33.
Next, “ACCTACCCTTGGGTTCTAACCTGTTGCGG (site CGAACATCTAA)”: 0.169.
Next, “ACCTACCCTTGGGTTCTAACCTGTTGCGT (site ACATATCCTAC)”: 0.0563; “ACCTACCCTTGGGTTCTAACCTGTTGCGT (site ACCTACCCTAC)”: 1.54.
In the case of “ACCTACTCTTGGGTTCTAACCTGTTGCCT (site ACCTACGCTAG)”, the “recombinant barcode read abundance (log10)” value came out at 0.0426.
Regarding “ACCTACTCTTGGGTTCTAACCTGTTGCCT (site ACCTACTCTAG)”, the “recombinant barcode read abundance (log10)” value is 1.36.
Regarding “ACCTGAACTTGGGTTCTAACCTGTTGCCT (site ACATGAACTAG)”, the “recombinant barcode read abundance (log10)” value stood at 0.056.
“ACCTGAACTTGGGTTCTAACCTGTTGCCT (site ACCTGAACTAG)”: the “recombinant barcode read abundance (log10)” value stood at 0.75.
Next, “ACCTGAACTTGGGTTCTAACCTGTTGCCT (site ACGTGAACTAG)”: 0.0712; “ACCTGAACTTGGGTTCTAACCTGTTGCCT (site ACTTGAACTAG)”: 0.0237.
Next, “ACCTGTGCTTGGGTTCTAACCTGTTGCCT (site ACCTGTGCTAG)”: 0.874; “ACCTGTGCTTGGGTTCTAACCTGTTGCCT (site ATCTGTTCTAG)”: 0.151.
Next, “ACCTTGTCTTGGGTTCTAACCTGTTGCCT (site ACATTGTCTAG)”: 0.217; “ACCTTGTCTTGGGTTCTAACCTGTTGCCT (site ACCTTGTCTAG)”: 0.93.
With “ACCTTGTCTTGGGTTCTAACCTGTTGCCT (site ACGTTGTCTAG)”, the “recombinant barcode read abundance (log10)” value worked out at 0.0273.
As for “ACCTTGTCTTGGGTTCTAACCTGTTGCCT (site ACTTTGTCTAG)”, the “recombinant barcode read abundance (log10)” value is 0.0709.
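Further: IS621 recombinase and bridge RNA in Escherichia coli cells.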
